The values below come from ChEMBL document CHEMBL1139092, “Challenges in the development of mGluR5 positive allosteric modulators: the discovery of CPPHA” (Bioorg Med Chem Lett, 2007).

pEC50: −log10 of the molar value. Some results are limits rather than exact numbers.

What all share (assay type): cell-based
Experiment [1] addresses T1, Metabotropic glutamate receptor 5 (Homo sapiens, UniProt P41594). The experiment in a line: Activity at human mGluR5 expressed in CHO cells assessed as potentiation of glutamate response by FLIPR assay relative to glutamate.
Target sequence in this assay (P41594 21-1212 limits assumed): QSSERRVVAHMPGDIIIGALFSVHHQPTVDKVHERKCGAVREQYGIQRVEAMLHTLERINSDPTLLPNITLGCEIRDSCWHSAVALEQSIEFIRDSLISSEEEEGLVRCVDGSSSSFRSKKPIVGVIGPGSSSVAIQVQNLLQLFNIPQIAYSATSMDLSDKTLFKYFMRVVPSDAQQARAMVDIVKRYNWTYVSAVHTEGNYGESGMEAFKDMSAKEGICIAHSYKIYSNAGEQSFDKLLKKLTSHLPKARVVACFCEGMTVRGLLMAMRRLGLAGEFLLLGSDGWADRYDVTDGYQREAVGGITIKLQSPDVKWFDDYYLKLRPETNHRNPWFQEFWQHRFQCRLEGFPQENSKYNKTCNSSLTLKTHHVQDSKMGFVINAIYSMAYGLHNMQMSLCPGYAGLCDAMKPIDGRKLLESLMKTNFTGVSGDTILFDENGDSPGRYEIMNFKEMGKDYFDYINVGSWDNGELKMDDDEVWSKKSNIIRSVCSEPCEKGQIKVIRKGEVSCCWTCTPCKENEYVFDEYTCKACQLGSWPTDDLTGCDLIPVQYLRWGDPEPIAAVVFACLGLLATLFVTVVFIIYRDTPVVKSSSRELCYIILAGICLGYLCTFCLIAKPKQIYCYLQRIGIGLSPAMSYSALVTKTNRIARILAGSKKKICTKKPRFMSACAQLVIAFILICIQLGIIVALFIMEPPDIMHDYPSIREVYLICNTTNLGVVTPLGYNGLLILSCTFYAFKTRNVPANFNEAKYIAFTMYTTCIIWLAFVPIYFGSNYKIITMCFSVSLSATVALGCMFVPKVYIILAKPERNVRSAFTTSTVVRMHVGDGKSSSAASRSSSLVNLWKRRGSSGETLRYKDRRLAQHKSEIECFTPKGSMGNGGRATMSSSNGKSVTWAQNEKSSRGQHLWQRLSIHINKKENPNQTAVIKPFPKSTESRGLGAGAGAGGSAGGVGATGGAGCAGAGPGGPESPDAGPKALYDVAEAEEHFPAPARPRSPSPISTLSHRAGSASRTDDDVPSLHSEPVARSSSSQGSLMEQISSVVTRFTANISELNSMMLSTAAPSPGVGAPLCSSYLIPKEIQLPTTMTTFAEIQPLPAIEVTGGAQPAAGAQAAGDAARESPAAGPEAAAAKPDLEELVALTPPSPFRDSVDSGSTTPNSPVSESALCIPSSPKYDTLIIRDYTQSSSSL
The target in experiment [2] is T1, Metabotropic glutamate receptor 5. As to the kind of experiment: Activity at human mGluR5 expressed in CHO cells assessed as potentiation of glutamate response by FLIPR assay.
Target sequence in this assay (P41594 whole entry): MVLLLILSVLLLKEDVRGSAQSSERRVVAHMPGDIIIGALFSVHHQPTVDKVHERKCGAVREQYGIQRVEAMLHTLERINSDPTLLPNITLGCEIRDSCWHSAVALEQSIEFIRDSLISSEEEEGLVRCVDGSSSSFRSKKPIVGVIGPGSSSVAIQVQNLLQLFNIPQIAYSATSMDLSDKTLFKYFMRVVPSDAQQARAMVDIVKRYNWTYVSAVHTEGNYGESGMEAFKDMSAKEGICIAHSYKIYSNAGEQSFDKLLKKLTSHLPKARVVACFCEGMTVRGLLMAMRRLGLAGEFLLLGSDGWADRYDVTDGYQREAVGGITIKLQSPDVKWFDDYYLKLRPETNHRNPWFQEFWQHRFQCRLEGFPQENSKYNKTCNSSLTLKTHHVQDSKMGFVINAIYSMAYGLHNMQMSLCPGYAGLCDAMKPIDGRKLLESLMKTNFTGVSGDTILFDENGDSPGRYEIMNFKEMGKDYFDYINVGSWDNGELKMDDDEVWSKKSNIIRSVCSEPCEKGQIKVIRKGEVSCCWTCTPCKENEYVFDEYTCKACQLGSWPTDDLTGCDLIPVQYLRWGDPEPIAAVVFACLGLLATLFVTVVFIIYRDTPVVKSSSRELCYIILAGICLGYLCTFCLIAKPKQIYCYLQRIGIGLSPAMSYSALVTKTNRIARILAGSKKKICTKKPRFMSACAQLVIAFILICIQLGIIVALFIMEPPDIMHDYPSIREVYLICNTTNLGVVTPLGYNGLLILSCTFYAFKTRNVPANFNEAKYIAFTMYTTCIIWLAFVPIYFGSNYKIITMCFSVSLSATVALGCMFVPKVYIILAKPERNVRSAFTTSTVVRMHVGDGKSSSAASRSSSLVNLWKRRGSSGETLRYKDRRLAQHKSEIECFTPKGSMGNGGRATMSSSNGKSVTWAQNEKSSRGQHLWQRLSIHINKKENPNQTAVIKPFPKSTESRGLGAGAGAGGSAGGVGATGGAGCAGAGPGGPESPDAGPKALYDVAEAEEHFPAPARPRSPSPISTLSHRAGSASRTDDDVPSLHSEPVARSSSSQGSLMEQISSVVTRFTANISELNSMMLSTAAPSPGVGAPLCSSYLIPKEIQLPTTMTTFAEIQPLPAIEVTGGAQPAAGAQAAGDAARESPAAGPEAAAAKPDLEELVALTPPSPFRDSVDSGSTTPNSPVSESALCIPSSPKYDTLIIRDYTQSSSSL
Experiment [3] has as its target Metabotropic glutamate receptor 5 (Rattus norvegicus, UniProt P31424). As to the kind of experiment: Activity at rat mGluR5 expressed in CHO cells assessed as potentiation of glutamate response by FLIPR assay.

The pEC50 is −log10 of the EC50, conventionally taken in molar units.

Metabotropic glutamate receptor 5 (Rattus norvegicus, UniProt P31424), sequence (P31424 whole entry): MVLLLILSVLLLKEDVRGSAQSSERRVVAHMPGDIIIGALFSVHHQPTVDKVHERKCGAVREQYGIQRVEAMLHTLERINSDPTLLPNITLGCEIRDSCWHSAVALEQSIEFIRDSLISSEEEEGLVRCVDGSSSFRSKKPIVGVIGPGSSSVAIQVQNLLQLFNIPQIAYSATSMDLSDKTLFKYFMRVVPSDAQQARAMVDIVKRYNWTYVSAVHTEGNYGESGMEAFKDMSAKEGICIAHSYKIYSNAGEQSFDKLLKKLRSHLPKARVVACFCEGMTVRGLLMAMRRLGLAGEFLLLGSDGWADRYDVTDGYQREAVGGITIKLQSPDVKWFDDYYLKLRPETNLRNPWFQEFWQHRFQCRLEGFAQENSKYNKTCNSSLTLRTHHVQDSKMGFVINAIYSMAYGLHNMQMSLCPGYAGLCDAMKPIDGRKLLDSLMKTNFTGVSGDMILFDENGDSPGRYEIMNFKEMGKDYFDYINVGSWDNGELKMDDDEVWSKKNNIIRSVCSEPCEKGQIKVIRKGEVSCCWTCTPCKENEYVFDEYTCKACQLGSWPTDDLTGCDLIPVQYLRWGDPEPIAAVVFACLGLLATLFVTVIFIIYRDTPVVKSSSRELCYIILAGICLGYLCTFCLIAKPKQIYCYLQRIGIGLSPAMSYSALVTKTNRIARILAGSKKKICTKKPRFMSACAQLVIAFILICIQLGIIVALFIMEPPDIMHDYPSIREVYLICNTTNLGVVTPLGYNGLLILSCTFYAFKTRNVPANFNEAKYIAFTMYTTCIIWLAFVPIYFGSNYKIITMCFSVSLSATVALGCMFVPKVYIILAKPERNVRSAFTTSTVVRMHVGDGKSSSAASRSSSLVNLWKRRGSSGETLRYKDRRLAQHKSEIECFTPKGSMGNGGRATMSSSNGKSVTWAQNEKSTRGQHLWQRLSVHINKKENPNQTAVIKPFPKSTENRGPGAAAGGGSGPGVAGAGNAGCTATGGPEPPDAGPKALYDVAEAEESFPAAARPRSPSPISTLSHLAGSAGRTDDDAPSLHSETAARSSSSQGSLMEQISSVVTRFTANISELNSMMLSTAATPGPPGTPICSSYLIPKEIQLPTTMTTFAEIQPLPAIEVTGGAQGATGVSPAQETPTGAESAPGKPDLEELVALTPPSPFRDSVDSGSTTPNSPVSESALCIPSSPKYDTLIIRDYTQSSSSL

Regarding `O=C(/C=C/c1cc(Cl)ccc1NC(=O)c1ccccn1)c1ccccc1`, the Activity in experiment [1] was found to be 8. For the same molecule, the pEC50 in experiment [2] is 5.77.

As for `O=C(Nc1ccc(Cl)cc1CN1C(=O)c2ccccc2C1=O)c1cccnc1`, the Activity in experiment [1] came to 1.8. In addition, the pEC50 is 4.46 in experiment [2] and less than 6.00 in experiment [3].

For `O=C(Nc1ccc(Cl)cc1CN1C(=O)c2ccccc2C1=O)c1ncccn1`, in experiment [1], the Activity worked out at 1.3. For the same molecule, the pEC50 is 5.68 in experiment [2] and less than 6.00 in experiment [3].

For `CCN(Cc1cc(Cl)ccc1NC(=O)c1ccccn1)C(=O)c1cc(Cl)cc(Cl)c1`, the Activity in experiment [1] stood at 5.9. Besides, the negative logarithm of the EC50 (pEC50) in experiment [2] was 6.33.

For the molecule `O=C(Nc1ccc(Cl)cc1CN1C(=O)c2ccccc2C1=O)c1ccco1`, in experiment [1], the Activity was 6.2. The pEC50 is 5.64 in experiment [2] and less than 6.00 in experiment [3].

Regarding `O=C(Nc1cccc(F)c1CN1C(=O)c2ccccc2C1=O)c1ccccn1`, in experiment [1], the Activity came out at 0.9. The pEC50 in experiment [2] is less than 4.00.

On to `O=C(Nc1ccc(Cl)cc1CN1C(=O)c2ccccc2C1=O)c1ccccn1` [listing 1 of 3 here], for which the pEC50 in experiment [2] (cho) was 6.60.

As for `Cc1ccc2c(c1C)C(=O)N(Cc1cc(Cl)ccc1NC(=O)c1ccccn1)C2=O`, the Activity in experiment [1] amounted to 3.7. The pEC50 in experiment [2] is 5.66.

`O=C(Nc1ccc(Cl)cc1CN1C(=O)c2ccccc2C1=O)c1cccnn1`: in experiment [1], the Activity turned out to be 0.6. Besides, the pEC50 was less than 4.00 in experiment [2] and less than 6.00 in experiment [3].

On to `COc1cccc(C(=O)Nc2ccc(Cl)cc2CN2C(=O)c3ccccc3C2=O)c1`, for which the Activity in experiment [1] stood at 1.6. Besides, the figures for the pEC50 in experiment [2] and in experiment [3] were 5.82 and less than 6.00, respectively.

As to `O=C(Nc1ccc(Cl)cc1CN1C(=O)c2ccccc2C1=O)c1ccccc1O`, the Activity in experiment [1] was 7.1.

Consider `O=C(Nc1ccc(Cl)cc1CN1C(=O)c2ccccc2C1=O)c1ccccn1` [listing 2 of 3 here], for which the Activity in experiment [1] is 6.8.

Regarding `O=C(CCc1cc(Cl)ccc1NC(=O)c1ccccn1)c1ccccc1`, the negative logarithm of the EC50 (pEC50) in experiment [2] was 5.35.

In the case of `O=C(Nc1ccc(Cl)cc1CN1C(=O)c2ccccc2C1=O)c1cncs1`, in experiment [1], the Activity is 9.2. For the same molecule, the negative logarithm of the EC50 (pEC50) was 5.72 in experiment [2] and less than 6.00 in experiment [3].

In the case of `O=C(Nc1ccc(Cl)cc1CN1C(=O)c2ccccc2C1=O)c1ncccc1O`, the Activity in experiment [1] was 11.3. The pEC50 was 6.59 in experiment [2] and less than 6.00 in experiment [3].

Regarding `O=C(Nc1ccc(Cl)cc1CN1C(=O)c2ccccc2C1=O)c1ccccc1C(F)(F)F`, the Activity in experiment [1] was 3.5. In addition, the pEC50 was 5.24 in experiment [2] and less than 6.00 in experiment [3].

In the case of `O=C(Nc1ccc(Cl)cc1CN1C(=O)c2ccc(F)cc2C1=O)c1ccccn1`, the Activity in experiment [1] was 4.6. Moreover, the pEC50 in experiment [2] was 6.48.

On to `COc1ccc2c(c1OC)C(=O)N(Cc1cc(Cl)ccc1NC(=O)c1ccccn1)C2=O`, for which the Activity in experiment [1] worked out at 0.6. For the same molecule, the pEC50 in experiment [2] was less than 4.00.

For `CCOc1cccc2c1C(=O)N(Cc1cc(Br)ccc1NC(=O)c1ccccn1)C2=O`, in experiment [1], the Activity came to 10.7. Besides, the negative-log EC50 (pEC50) in experiment [2] is 6.14.

For `Cc1ccc2c(c1C)C(=O)N(Cc1cc(Br)ccc1NC(=O)c1ccccn1)C2=O`, the Activity in experiment [1] came to 0.6. Further, the negative-log EC50 (pEC50) in experiment [2] is less than 4.00.

Take `O=C(Nc1ccc(Cl)cc1CN1C(=O)c2ccccc2C1=O)c1ccccc1`: in experiment [1], the Activity stood at 0.6. Moreover, the pEC50 is less than 4.00 in experiment [2] and less than 6.00 in experiment [3].

With `O=C(Nc1ccc(F)cc1CN1C(=O)c2ccccc2C1=O)c1ccccn1`, the Activity in experiment [1] was determined as 2.6. Moreover, in experiment [2], the pEC50 is 5.82.

For the molecule `COc1ccccc1C(=O)Nc1ccc(Cl)cc1CN1C(=O)c2ccccc2C1=O`, in experiment [1], the Activity was 0.6. The results for the pEC50 in experiment [2] and in experiment [3] were less than 4.00 and less than 6.00, respectively.

In the case of `O=C(Nc1ccc(Cl)cc1CN1C(=O)c2ccccc2C1=O)c1ccccn1` [listing 3 of 3 here], in experiment [2], the pEC50 was 6.60.

Regarding `O=C(Nc1ccc(Cl)cc1CN1C(=O)c2ccccc2C1=O)C1CCCCC1`, the Activity in experiment [1] is 4.1. Besides, the pEC50 in experiment [2] was 5.82; in experiment [3], less than 6.00.

Take `CCOc1cccc2c1C(=O)N(Cc1cc(Cl)ccc1NC(=O)c1ccccn1)C2=O`: the Activity in experiment [1] came to 4.5. In experiment [2], the pEC50 is 6.55.

On to `O=C(Nc1ccc(Br)cc1CN1C(=O)c2ccccc2C1=O)c1ccccn1`, for which the Activity in experiment [1] is 7.6. For the same molecule, the negative logarithm of the EC50 (pEC50) in experiment [2] is 6.12; in experiment [3] it was less than 6.00.

Take `O=C(Nc1ccc(Br)cc1CN1C(=O)c2ccc(F)cc2C1=O)c1ccccn1`: in experiment [1], the Activity amounted to 11.1. Also, the pEC50 in experiment [2] was 6.03.

As to `COc1ccc2c(c1OC)C(=O)N(Cc1cc(Br)ccc1NC(=O)c1ccccn1)C2=O`, the Activity in experiment [1] is 0.6. The negative-log EC50 (pEC50) in experiment [2] was less than 4.00.

With `O=C(Nc1ccccc1CN1C(=O)c2ccccc2C1=O)c1ccccn1`, the Activity in experiment [1] was 3.4. Moreover, the pEC50 in experiment [2] is 4.86.

Turning to `O=C(Nc1ccc(Cl)cc1CN1C(=O)c2ccccc2C1=O)c1ccccc1[N+](=O)[O-]`, the Activity in experiment [1] was found to be 2.9. For the same molecule, the negative logarithm of the EC50 (pEC50) was 5.24 in experiment [2] and less than 6.00 in experiment [3].

With `COc1ccc(NC(=O)c2ccccn2)c(CN2C(=O)c3ccccc3C2=O)c1`, the Activity in experiment [1] is 3.5. For the same molecule, the pEC50 in experiment [2] is 5.85.
